{"source": "ChEMBL document CHEMBL2057146", "about": "“Improvement by sodium dl-α-tocopheryl-6-O-phosphate treatment of moisture-retaining ability in stratum corneum through increased ceramide levels” (Bioorg Med Chem, 2012)", "key": {"[1]": {"tested_on": "Mus musculus", "test": "Increase in ceramide content in hairless mouse skin at 1% v/v administered topically after 4 weeks relative to vehicle treated control", "assay_type": "functional"}, "[2]": {"tested_on": "Mus musculus", "test": "Increase in ceramide content in hairless mouse skin at 1% w/v administered topically after 30 hrs relative to vehicle treated control", "assay_type": "functional"}, "[3]": {"tested_on": "Homo sapiens", "test": "Increase in ceramide content in human skin at 4% administered topically after 4 weeks relative to vehicle treated control", "assay_type": "functional"}, "[4]": {"tested_on": "Keratinocyte", "test": "Increase in ceramide content in keratinocytes at […] after 24 hrs relative to vehicle treated control", "assay_type": "functional"}, "[5]": {"tested_on": "Homo sapiens", "test": "Increase in ceramide content in human skin at 2% administered topically after 4 weeks relative to vehicle treated control", "assay_type": "functional"}, "[6]": {"tested_on": "Keratinocyte", "test": "Increase in ceramide content in normal human keratinocytes at 1 to 30 uM after 6 days relative to vehicle treated control", "assay_type": "functional"}, "[7]": {"test": "Upregulation of SPTLCB1 mRNA expression in neonatal human foreskin keratinocytes at 10 uM after 4 days relative to vehicle treated control", "assay_type": "functional, cell-based", "settings": "Keratinocyte"}, "[8]": {"test": "Upregulation of SPTLCB2 mRNA expression in neonatal human foreskin keratinocytes at 10 uM after 4 days relative to vehicle treated control", "assay_type": "functional, cell-based", "settings": "Keratinocyte"}, "[9]": {"tested_on": "Homo sapiens", "test": "Increase in ceramide content in human skin at 0.3 to 1% administered topically after 11 days relative to vehicle treated control", "assay_type": "functional"}, "[10]": {"tested_on": "Keratinocyte", "test": "Increase in ceramide content in keratinocytes at 1% after 6 days relative to vehicle treated control", "assay_type": "functional"}}, "data": [{"compound": "CCO[C@H]1O[C@H](CO)[C@@H](O)[C@H](O)[C@H]1O", "values": [{"measurement": "fold change (FC)", "setting": "[1]", "result": 1.1}]}, {"compound": "O=C1CCCCCCCCCCCC(=O)OCCO1", "values": [{"measurement": "fold change (FC)", "setting": "[2]", "result": 1.3}]}, {"compound": "CC(O)C(=O)O", "note": "(configuration not stated) [LACTIC ACID]", "values": [{"measurement": "fold change (FC)", "setting": "[3]", "result": 1.4}, {"measurement": "fold change (FC)", "setting": "[4]", "result": 4.3}, {"measurement": "fold change (FC)", "setting": "[5]", "result": 1.4}]}, {"compound": "NC(=O)c1cccnc1", "note": "[NIACINAMIDE]", "values": [{"measurement": "fold change (FC)", "setting": "[6]", "result": 4.1}, {"measurement": "fold change (FC)", "setting": "[7]", "result": 1.8}, {"measurement": "fold change (FC)", "setting": "[3]", "result": 1.4}, {"measurement": "fold change (FC)", "setting": "[8]", "result": 1.8}, {"measurement": "fold change (FC)", "setting": "[5]", "result": 1.4}]}, {"compound": "C[C@H]1[C@H](C)CC[C@]2(C(=O)O)CC[C@]3(C)C(=CC[C@@H]4[C@@]5(C)CC[C@H](O)C(C)(C)[C@@H]5CC[C@]43C)[C@H]12", "note": "[URSOLIC ACID]", "values": [{"measurement": "fold change (FC)", "setting": "[9]", "result": 1.3}, {"measurement": "fold change (FC)", "setting": "[10]", "result": 2.2}]}]}
